Laboratory results from patent publication US20160242416A1, “FUNGICIDAL ISOXAZOLINE CARBINOLS” (E I DU PONT DE NEMOURS AND COMPANY, priority 2015, published 2016).

What was measured:
[1] = system: Botrytis cinerea; assay: Test B: gray mold, preventive spray on tomato seedlings; settings: 100 = 100% disease control; for Test B rating (% disease control): 10 ppm, gray mold on tomato, 0 = no control; for Test B disease control rating: 10 ppm test solution, 0 = no control relative to controls
[2] = system: Puccinia recondita f sp. tritici; assay: Test F: wheat leaf rust, preventive spray on wheat seedlings; settings: 100 = 100% disease control; for Test F rating (% disease control): 10 ppm, wheat leaf rust, 0 = no control; for Test F disease control rating: 10 ppm test solution, 0 = no control relative to controls
Text: (§1) General protocol for preparing test solutions for Tests A-G: the test compounds were first dissolved in acetone in an amount equal to 3% of the final volume and then suspended at the desired concentration (in ppm) in acetone and purified water (50/50 mix by volume) containing 250 ppm of the surfactant PEG400 (polyhydric alcohol esters). The resulting test suspensions were then used in Tests A-G. Compounds were sprayed at a concentration of 50 ppm (*) or 10 ppm to the point of run-off on the test plants, the equivalent of a rate of 200 g/ha or 40 g/ha, respectively.
The test solution was sprayed to the point of run-off on wheat seedlings. The following day the seedlings were inoculated with a spore suspension of Puccinia recondita f sp. tritici; (the causal agent of wheat leaf rust) and incubated in a saturated atmosphere at 20° C. for 24 h, and then moved to a growth chamber at 20° C. for 6 days, after which time visual disease ratings were made.
A dash (-) indicates no test results. Compounds with an asterisks (*) were applied at a concentration of 50 ppm, otherwise test solutions were applied at 10 ppm.

[3] = system: Zymoseptoria tritici; assay: Test E: wheat leaf blotch, preventive spray on wheat seedlings; settings: 100 = 100% disease control; for Test E rating (% disease control): 10 ppm, wheat leaf blotch, 0 = no control; for Test E disease control rating: 10 ppm test solution, 0 = no control relative to controls
[4] = system: Stagonospora nodorum; assay: Test D: wheat glume blotch, preventive spray on wheat seedlings; settings: 100 = 100% disease control; for Test D rating (% disease control): 10 ppm, wheat glume blotch, 0 = no control; for Test D disease control rating: 10 ppm test solution, 0 = no control relative to controls
Text: as §1
The test solution was sprayed to the point of run-off on wheat seedlings. The following day the seedlings were inoculated with a spore suspension of Stagonospora nodorum (also known as Septoria nodorum; the causal agent of wheat glume blotch) and incubated in a saturated atmosphere at 20° C. for 48 h, and then moved to a growth chamber at 20° C. for 6 days, after which time visual disease ratings were made.
(§2) Compounds with an asterisks (*) were applied at a concentration of 50 ppm, otherwise test solutions were applied at 10 ppm.

[5] = system: Erysiphe graminis f sp. tritici; assay: Test G: wheat powdery mildew, preventive spray on wheat seedlings; settings: 100 = 100% disease control; for Test G rating (% disease control): 10 ppm, wheat powdery mildew, 0 = no control; for Test G disease control rating: 10 ppm test solution, 0 = no control relative to controls
Text: as §1
The test solution was sprayed to the point of run-off on wheat seedlings. The following day the seedlings were inoculated with a spore dust of Erysiphe graminis f sp. tritici, (the causal agent of wheat powdery mildew) and incubated in a growth chamber at 20° C. for 8 days, after which time visual disease ratings were made.
as §2

SMILES | Test B rating (% disease control) [1] | Test F rating (% disease control) [2] | Test E rating (% disease control) [3] | Test D rating (% disease control) [4] | Test G rating (% disease control) [5] | Test B disease control rating [1] | Test F disease control rating [2] | Test E disease control rating [3] | Test D disease control rating [4] | Test G disease control rating [5]
OC(Cn1cncn1)(C1=NOC(c2ccc(C(F)(F)F)cc2)C1)c1ccc(Cl)cc1 (single isomer, unassigned) [Compound 147] | 0% | 100% | 17% | 73% | 90% | – | – | – | – | –
CC1(C(O)(Cn2cncn2)C2=NOC(c3ccc(Cl)cc3)C2)CC1 (single isomer, unassigned) [Compound 126] | 97% | 100% | 89% | 100% | 99% | – | – | – | – | –
OC(Cn1cncn1)(C1=NOC(Cc2ccc(Br)cc2)C1)c1ccc(Cl)cc1 (single isomer, unassigned) [Compound 55] | 0% | 99% | 2% | 73% | 99% | – | – | – | – | –
OC(Cn1cncn1)(C1=NOC(Cc2ccccc2)C1)c1ccc(Cl)cc1 (single isomer, unassigned) [Compound 137] | 0% | 99% | 26% | 77% | 99% | – | – | – | – | –
OC(Cn1cncn1)(C1=NOC(Cc2ccc(F)cc2)C1)c1ccc(Cl)cc1 (single isomer, unassigned) [Compound 198] | 0% | 100% | 0% | 81% | 100% | – | – | – | – | –
CC(C)(C)C(O)(Cn1cncn1)C1=NOC(c2cnccn2)C1 (single isomer, unassigned) [Compound 168] | 11% | 0% | 3% | 0% | 35% | – | – | – | – | –
OC(Cn1cncn1)(C1=NOC(COc2ccc3c(c2)OCO3)C1)c1ccc(Cl)cc1 (single isomer, unassigned) [Compound 43] | 31% | 100% | 0% | 38% | 98% | – | – | – | – | –
CCC(C)(C)C(O)(Cn1cncn1)C1=NOC(COc2ccc(Br)cc2)C1 (single isomer, unassigned) [Compound 11] | 81% | 100% | 88% | 100% | 99% | – | – | – | – | –
OC(Cn1cncn1)(C1=NOC(Cn2ccc(C(F)(F)F)n2)C1)c1ccc(Cl)cc1 (single isomer, unassigned) [Compound 195] | 0% | 99% | 0% | 0% | 100% | – | – | – | – | –
OC(Cn1cncn1)(C1=NOC(c2ccc(-n3cc(Br)cn3)cc2)C1)c1ccc(Cl)cc1 (single isomer, unassigned) [Compound 5] | 0% | 100% | 48% | 40% | 100% | – | – | – | – | –
OC(Cn1cncn1)(C1=NOC(c2cccc(Oc3ccccc3)c2)C1)c1ccc(Cl)cc1 (single isomer, unassigned) [Compound 177] | 0% | 0% | 0% | 51% | 89% | – | – | – | – | –
OC(Cn1cncn1)(C1=NOC(c2ccc(Cl)cc2)C1)C12CC3CC(CC(C3)C1)C2 (single isomer, unassigned) [Compound 40] | 0% | 55% | 0% | 51% | 48% | – | – | – | – | –
OC(Cn1cncn1)(C1=NOC(COc2ccc(Cl)cn2)C1)c1ccc(Cl)cc1 (single isomer, unassigned) [Compound 164] | 0% | 100% | 96% | 95% | 100% | – | – | – | – | –
OC(Cn1cncn1)(C1=NOC2c3ccccc3CCC12)c1ccc(Cl)cc1 (stereo not drawn) [Compound 222] | – | – | – | – | – | 9% | 100% | 23% | 50% | 99%
CSc1ccc(C2CC(C(O)(Cn3cncn3)c3ccc(Cl)cc3)=NO2)cc1 (single isomer, unassigned) [Compound 108] | 0% | 78% | 25% | 0% | 64% | – | – | – | – | –
OC(Cn1cncn1)(C1=NOC(c2ccc(C(F)(F)F)cc2)C1)c1ccc(Cl)cc1 (single isomer, unassigned) [Compound 146] | 0% | 100% | 99% | 100% | 99% | – | – | – | – | –
OC(Cn1cncn1)(C1=NOC(COC2CCCCC2)C1)c1ccc(Cl)cc1 (single isomer, unassigned) [Compound 90] | 0% | 0% | 0% | 59% | 64% | – | – | – | – | –
CC(C)(C)C(O)(Cn1cncn1)C1=NOC(COc2ccc(-n3cccn3)cc2)C1 (single isomer, unassigned) [Compound 29] | 0% | 0% | 0% | 49% | 99% | – | – | – | – | –
CC(C)(C)C(O)(Cn1cncn1)C1=NOC(Cc2ccccc2)C1 (single isomer, unassigned) [Compound 87] | 83% | 99% | 1% | 99% | 98% | – | – | – | – | –
OC(Cn1cncn1)(C1=NOC(c2cnccn2)C1)c1ccc(Cl)cc1 (single isomer, unassigned) [Compound 157] | 0% | 0% | 0% | 0% | 26% | – | – | – | – | –
OC(Cn1cncn1)(C1=NOC(c2ccc(F)cc2)C1)c1ccc(Cl)cc1 (single isomer, unassigned) [Compound 158] | 0% | 100% | 3% | 96% | 100% | – | – | – | – | –
OC(Cn1cncn1)(C1=NOC(COc2ccc(Cl)nc2)C1)c1ccc(Cl)cc1 (single isomer, unassigned) [Compound 101] | 0% | 100% | 0% | 0% | 99% | – | – | – | – | –
OC(Cn1cncn1)(C1=NOC(c2ccc(Cl)cc2)C1)c1ccccc1F (single isomer, unassigned) [Compound 134] | 0% | 99% | 31% | 100% | 98% | – | – | – | – | –
CC(C)(C)C(O)(Cn1cncn1)C1=NOC(COc2cccc(Cl)c2)C1 (single isomer, unassigned) [Compound 230] | – | – | – | – | – | 99% | 100% | 8% | 100% | 99%
